From the NIST ThermoML archive (doi:10.1016/j.jct.2004.02.001)
Values joined by “and” are separate entries in the source; they are usually repeats but may differ in a detail not shown here. Equal entries are not always repeated.

What was measured:
[1] = for vapor or sublimation pressure: Calculated from knudsen effusion weight loss; for Triple point temperature: DTA
[2] = Molar enthalpy of transition or fusion; settings: DSC

CCCCCCc1ccc(C(=O)O)cc1 [4-hexylbenzoic acid]
[1], Crystal 1
Settings | vapor or sublimation pressure
347.08 K | 0.00015 kPa and 0.000151 kPa and 0.000146 kPa
349.19 K | 0.000193 kPa and 0.000191 kPa and 0.000189 kPa
351.19 K | 0.000245 kPa and 0.000243 kPa and 0.000232 kPa
353.14 K | 0.000298 kPa and 0.000293 kPa and 0.000304 kPa
355.25 K | 0.000391 kPa and 0.000388 kPa and 0.000381 kPa
357.16 K | 0.000485 kPa and 0.00047 kPa and 0.000468 kPa
359.27 K | 0.000619 kPa and 0.000614 kPa and 0.000605 kPa
361.35 K | 0.000768 kPa and 0.000764 kPa and 0.000736 kPa
363.14 K | 0.000951 kPa and 0.000946 kPa and 0.000919 kPa

Settings | Molar enthalpy of transition or fusion, Crystal 1 [kcal/mol] | Molar enthalpy of transition or fusion, Crystal 3 [kcal/mol] | Triple point temperature, Crystal 1 [K] | Triple point temperature, Nematic liquid crystal [K]
[1] | – | – | 370.64 | 385.87
[2] | 0.227 | 3.08 | – | –

CCc1ccc(C(=O)O)cc1 [4-ethylbenzoic acid]
[1], Crystal
Settings | vapor or sublimation pressure
321.17 K | 0.000214 kPa and 0.000211 kPa
323.16 K | 0.000272 kPa and 0.000265 kPa and 0.000263 kPa
325.22 K | 0.000347 kPa and 0.000335 kPa
327.17 K | 0.000419 kPa and 0.000418 kPa and 0.000436 kPa
329.34 K | 0.00055 kPa and 0.000542 kPa and 0.000527 kPa
331.2 K | 0.000666 kPa and 0.000651 kPa and 0.000637 kPa
333.14 K | 0.000826 kPa and 0.000818 kPa and 0.000803 kPa
335.25 K | 0.00103 kPa and 0.00101 kPa and 0.001 kPa

Crystal
Settings | Molar enthalpy of transition or fusion [kcal/mol] | Triple point temperature [K]
[1] | – | 385.2
[2] | 3.06 | –

CCCCCCCCc1ccc(C(=O)O)cc1 [4-octylbenzoic acid]
[1]
Settings | vapor or sublimation pressure
356.67 K, Crystal 2 | 8.5e-05 kPa and 8.6e-05 kPa
358.22 K, Crystal 2 | 0.000102 kPa and 0.000103 kPa
359.66 K, Crystal 2 | 0.000127 kPa and 0.000126 kPa
361.16 K, Crystal 2 | 0.00015 kPa and 0.000148 kPa
362.71 K, Crystal 2 | 0.000182 kPa and 0.000181 kPa
364.25 K, Crystal 2 | 0.000213 kPa and 0.000211 kPa
365.68 K, Crystal 2 | 0.000255 kPa and 0.000253 kPa
367.46 K, Crystal 1 | 0.000302 kPa and 0.000305 kPa
368.85 K, Crystal 1 | 0.000356 kPa and 0.000355 kPa
370.35 K, Crystal 1 | 0.000426 kPa and 0.000424 kPa
371.86 K, Crystal 1 | 0.000504 kPa and 0.000502 kPa

Settings | Molar enthalpy of transition or fusion, Crystal 1 [kcal/mol] | Molar enthalpy of transition or fusion, Crystal 2 [kcal/mol] | Molar enthalpy of transition or fusion, Crystal 3 [kcal/mol] | Molar enthalpy of transition or fusion, Nematic liquid crystal [kcal/mol] | Triple point temperature, Crystal 1 [K] | Triple point temperature, Crystal 2 [K] | Triple point temperature, Crystal 3 [K] | Triple point temperature, Nematic liquid crystal [K]
[1] | – | – | – | – | 373.25 | 366.56 | 305.46 | 385.54
[2] | 3.42 | 0.112 | 1.29 | 0.287 | – | – | – | –

CCCCCCCc1ccc(C(=O)O)cc1 [4-heptylbenzoic acid]
[1], Crystal 1
Settings | vapor or sublimation pressure
353.16 K | 0.000119 kPa and 0.000121 kPa and 0.000116 kPa
355.19 K | 0.000149 kPa and 0.000151 kPa
357.19 K | 0.000191 kPa and 0.000193 kPa and 0.000189 kPa
359.18 K | 0.000239 kPa and 0.00024 kPa
361.17 K | 0.000312 kPa and 0.0003 kPa and 0.000304 kPa
363.2 K | 0.000392 kPa and 0.000381 kPa
365.18 K | 0.000484 kPa and 0.000482 kPa and 0.000475 kPa
367.14 K | 0.000608 kPa and 0.000602 kPa and 0.000595 kPa
369.2 K | 0.000771 kPa and 0.000764 kPa and 0.000751 kPa

Settings | Molar enthalpy of transition or fusion, Crystal 1 [kcal/mol] | Molar enthalpy of transition or fusion, Crystal 2 [kcal/mol] | Molar enthalpy of transition or fusion, Nematic liquid crystal [kcal/mol] | Triple point temperature, Crystal 1 [K] | Triple point temperature, Crystal 2 [K] | Triple point temperature, Nematic liquid crystal [K]
[1] | – | – | – | 374.52 | 320.17 | 393.11
[2] | 3.42 | 1.77 | 0.239 | – | – | –

CCCCc1ccc(C(=O)O)cc1 [4-butylbenzoic acid]
[1], Crystal 1
Settings | vapor or sublimation pressure
333.16 K | 0.000164 kPa and 0.000162 kPa
335.16 K | 0.000211 kPa and 0.000212 kPa
337.14 K | 0.000263 kPa and 0.000262 kPa and 0.000261 kPa
339.17 K | 0.000323 kPa and 0.000328 kPa and 0.00033 kPa
341.17 K | 0.000422 kPa and 0.00042 kPa and 0.000408 kPa
343.16 K | 0.00052 kPa and 0.000522 kPa
345.15 K | 0.000645 kPa and 0.000629 kPa and 0.000622 kPa
347.13 K | 0.000804 kPa and 0.000786 kPa and 0.00078 kPa
349.15 K | 0.000994 kPa and 0.000968 kPa and 0.000978 kPa

Settings | Molar enthalpy of transition or fusion, Crystal 1 [kcal/mol] | Molar enthalpy of transition or fusion, Crystal 2 [kcal/mol] | Molar enthalpy of transition or fusion, Nematic liquid crystal [kcal/mol] | Triple point temperature, Crystal 1 [K] | Triple point temperature, Crystal 2 [K] | Triple point temperature, Nematic liquid crystal [K]
[1] | – | – | – | 374.6 | 309.64 | 387.98
[2] | 2.77 | 1.12 | 0.182 | – | – | –

CCCCCc1ccc(C(=O)O)cc1 [4-pentylbenzoic acid]
[1], Crystal 1
Settings | vapor or sublimation pressure
341.16 K | 0.000174 kPa and 0.000177 kPa and 0.000169 kPa
343.16 K | 0.000223 kPa and 0.000214 kPa
345.16 K | 0.000279 kPa and 0.000271 kPa
347.18 K | 0.000358 kPa and 0.000355 kPa and 0.000345 kPa
349.18 K | 0.000454 kPa and 0.000455 kPa and 0.000439 kPa
351.17 K | 0.000553 kPa and 0.000544 kPa and 0.000533 kPa
353.16 K | 0.000694 kPa and 0.000692 kPa and 0.000682 kPa
355.16 K | 0.000852 kPa and 0.000854 kPa and 0.000828 kPa
357.16 K | 0.00109 kPa and 0.00106 kPa

Settings | Molar enthalpy of transition or fusion, [2] [kcal/mol] | Triple point temperature, [1] [K]
Crystal 1 | 2.72 | 362.45
Nematic liquid crystal | 0.263 | 399.3

CCCc1ccc(C(=O)O)cc1 [4-propylbenzoic acid]
[1], Crystal 1
Settings | vapor or sublimation pressure
331.16 K | 0.000166 kPa and 0.000162 kPa and 0.000159 kPa
333.14 K | 0.000207 kPa
335.17 K | 0.000259 kPa and 0.000252 kPa and 0.000246 kPa
337.17 K | 0.000321 kPa and 0.000318 kPa
339.15 K | 0.000397 kPa
341.16 K | 0.000501 kPa and 0.000485 kPa
343.16 K | 0.00062 kPa
345.14 K | 0.000772 kPa and 0.000774 kPa and 0.000768 kPa
347.16 K | 0.000968 kPa and 0.000944 kPa

Settings | Molar enthalpy of transition or fusion, [2] [kcal/mol] | Triple point temperature, [1] [K]
Crystal 1 | 4.7 | 415.41
Crystal 2 | 0.81 | 298.48

Cc1ccc(C(=O)O)cc1 [4-methylbenzoic acid]
[1], Crystal
Settings | vapor or sublimation pressure
319.68 K | 0.000137 kPa and 0.000133 kPa
322.14 K | 0.000182 kPa and 0.000179 kPa and 0.000174 kPa
324.62 K | 0.000235 kPa and 0.00023 kPa
327.08 K | 0.000309 kPa and 0.000307 kPa and 0.000312 kPa
329.73 K | 0.000421 kPa and 0.000415 kPa and 0.000408 kPa
332.11 K | 0.000536 kPa and 0.000529 kPa and 0.000515 kPa
334.63 K | 0.00071 kPa and 0.000689 kPa and 0.000685 kPa
337.33 K | 0.00092 kPa and 0.000891 kPa

Crystal
Settings | Molar enthalpy of transition or fusion [kcal/mol] | Triple point temperature [K]
[1] | – | 452.34
[2] | 5.37 | –
